Data as given in US9681664B2, “Macrocyclic picolinamides as fungicides” (Dow Agrosciences LLC, priority 2012, dated 2017).
Where two headings read alike, the source gives them in different places.

Columns and labels:
[1] = test system: Mycosphaerella graminicola; Anamorph: Septoria tritici; experiment: Leaf blotch of wheat (SEPTTR) disease control on wheat seedlings; format: in vivo; conditions: Zymoseptoria tritici, Wheat Leaf Blotch; for pest or weed control at 100 ppm: high volume application; for pest or weed control at 121.5 g/ha: low volume application, 121.5 g/H
Method in brief: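 Wheat seedlings (Yuma, first leaf emerged) sprayed to run-off with compound in acetone/water with 110 ppm Triton X-100, or track-sprayed as EC with 0.1% Trycol 5941. Septoria tritici spores inoculated before or after treatment. Dew chambers, then 20 °C greenhouse. Percent disease control derived from severity (0–100%) relative to untreated plants.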

[2] = test system: Puccinia triticina; Synonym: Puccinia recondite f. sp. tritici; experiment: Wheat brown rust (PUCCRT) disease control on wheat seedlings; format: in vivo; conditions: Puccinia triticina, Wheat Brown Rust; for pest or weed control at 100 ppm: high volume application; for pest or weed control at 121.5 g/ha: low volume application, 121.5 g/H
Method in brief: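 Acetone solutions diluted in nine volumes of water with 110 ppm Triton X-100 sprayed to run-off on first-leaf Yuma wheat seedlings (track spray: EC with 0.1% Trycol 5941). Puccinia triticina spores inoculated before or after treatment; overnight dark dew at 22° C., 100% RH, then greenhouse at 24° C. for disease development.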

[3] = 24 h, 1 Day Protectant, read-out: Disease Control SEPTTR 1 DP 100 ppm
[4] = 24 h, 1 Day Protectant, read-out: Disease Control SEPTTR 1 DP 121.5 g/H
[5] = 72 h, 3 Day Curative, read-out: Disease Control SEPTTR 3 DC 100 ppm
[6] = 72 h, 3 Day Curative, read-out: Disease Control SEPTTR 3 DC 121.5 g/H
[7] = 24 h, 1 Day Protectant, read-out: Disease Control PUCCRT 1 DP 100 ppm
[8] = 24 h, 1 Day Protectant, read-out: Disease Control PUCCRT 1 DP 121.5 g/H
[9] = 72 h, 3 Day Curative, read-out: Disease Control PUCCRT 3 DC 100 ppm
[10] = 72 h, 3 Day Curative, read-out: Disease Control PUCCRT 3 DC 121.5 g/H

SMILES | pest or weed control at 100 ppm [1, 3] | pest or weed control at 121.5 g/ha [1, 4] | pest or weed control at 100 ppm [1, 5] | pest or weed control at 121.5 g/ha [1, 6] | pest or weed control at 100 ppm [2, 7] | pest or weed control at 121.5 g/ha [2, 8] | pest or weed control at 100 ppm [2, 9] | pest or weed control at 121.5 g/ha [2, 10]
COc1ccnc(C(=O)N[C@H]2CCC[C@H](Oc3ccccc3)[C@@H](OC(=O)C3CCCC3)[C@H](C)OC2=O)c1OCOC(C)=O [F233] | 80 to 100% | 80 to 100% | 80 to 100% | 80 to 100% | 80 to 100% | 80 to 100% | 80 to 100% | 0 to 80%
COc1ccnc(C(=O)N[C@H]2CCC[C@H](Oc3ccccc3)[C@@H](OC(=O)C3CCCC3)[C@H](C)OC2=O)c1OCOC(=O)C(C)C [F234] | 80 to 100% | 80 to 100% | 80 to 100% | < 0% | 80 to 100% | 80 to 100% | 80 to 100% | < 0%
COc1ccnc(C(=O)N[C@H]2CCC[C@H](Oc3ccccc3)[C@@H](OC(=O)C3CCCC3)[C@H](C)OC2=O)c1OC(C)=O [F235] | 80 to 100% | 80 to 100% | 80 to 100% | 0 to 80% | 80 to 100% | 80 to 100% | 80 to 100% | 0 to 80%
COc1ccnc(C(=O)N[C@H]2CCC[C@H](Oc3ccccc3)[C@@H](OC(=O)C3CCCC3)[C@H](C)OC2=O)c1OC(=O)C1CC1 [F236] | 0 to 80% | 80 to 100% | 0 to 80% | 0 to 80% | 80 to 100% | 0 to 80% | 0 to 80% | < 0%
COc1ccnc(C(=O)N[C@H]2CCC[C@H](Oc3ccccc3)[C@@H](OC(=O)C3CC3)[C@H](C)OC2=O)c1O [F239] | < 0% | – | 0 to 80% | – | 0 to 80% | – | < 0% | –
COc1ccnc(C(=O)N[C@H]2CCC[C@H](Oc3ccccc3)[C@@H](OC(=O)C3CC3)[C@H](C)OC2=O)c1OCOC(C)=O [F240] | 80 to 100% | 80 to 100% | 80 to 100% | 80 to 100% | 80 to 100% | 80 to 100% | 80 to 100% | 80 to 100%
C=C(C)CO[C@H]1CCC[C@H](NC(=O)c2nccc(OC)c2O)C(=O)O[C@@H](C)[C@@H]1OC [F245] | 0 to 80% | – | 80 to 100% | – | 80 to 100% | – | 0 to 80% | –
COc1ccnc(C(=O)N[C@H]2CCC[C@H](OCC(C)C)[C@@H](OC)[C@H](C)OC2=O)c1O [F247] | 80 to 100% | – | 0 to 80% | – | 80 to 100% | – | 80 to 100% | –
COc1ccnc(C(=O)N[C@H]2CCC[C@H](Oc3ccccc3)[C@@H](OC)[C@H](C)OC2=O)c1O [F249] | 0 to 80% | – | 0 to 80% | – | 80 to 100% | – | 80 to 100% | –
C=C(C)CO[C@H]1CCC[C@H](NC(=O)c2nccc(OC)c2OC(C)=O)C(=O)O[C@@H](C)[C@@H]1OC [F256] | – | < 0% | – | 0 to 80% | – | 0 to 80% | – | 80 to 100%
COc1ccnc(C(=O)N[C@H]2CCC[C@H](OCC(C)C)[C@@H](OC)[C@H](C)OC2=O)c1OC(C)=O [F257] | – | 80 to 100% | – | 80 to 100% | – | 80 to 100% | – | 80 to 100%
COc1ccnc(C(=O)N[C@H]2CCC[C@H](Oc3ccccc3)[C@@H](OC)[C@H](C)OC2=O)c1OC(C)=O [F258] | – | 0 to 80% | – | 0 to 80% | – | 80 to 100% | – | 80 to 100%
COCCC(=O)Oc1c(OC)ccnc1C(=O)N[C@H]1CCC[C@H](OCC(C)C)[C@@H](OC)[C@H](C)OC1=O [F259] | – | < 0% | – | 80 to 100% | – | 80 to 100% | – | 80 to 100%
COCCC(=O)Oc1c(OC)ccnc1C(=O)N[C@H]1CCC[C@H](Oc2ccccc2)[C@@H](OC)[C@H](C)OC1=O [F260] | – | 0 to 80% | – | 80 to 100% | – | 80 to 100% | – | 80 to 100%
CCCO[C@H]1CCC[C@H](NC(=O)c2nccc(OC)c2O)C(=O)O[C@@H](C)[C@@H]1Oc1ccc(F)cc1 [F262] | 80 to 100% | – | 80 to 100% | – | 0 to 80% | – | 80 to 100% | –
CCCO[C@H]1[C@H](C)OC(=O)[C@@H](NC(=O)c2nccc(OC)c2O)CCC[C@@H]1Oc1ccc(F)cc1 [F264] | 80 to 100% | – | 0 to 80% | – | 0 to 80% | – | 80 to 100% | –
CCCO[C@H]1CCC[C@H](NC(=O)c2nccc(OC)c2OCOC(C)=O)C(=O)O[C@@H](C)[C@@H]1Oc1ccc(F)cc1 [F265] | 80 to 100% | 80 to 100% | 80 to 100% | – | 80 to 100% | 80 to 100% | 80 to 100% | 0 to 80%
CCCO[C@H]1CCC[C@H](NC(=O)c2nccc(OC)c2OC(C)=O)C(=O)O[C@@H](C)[C@@H]1Oc1ccc(F)cc1 [F266] | – | 80 to 100% | – | – | – | 80 to 100% | – | 80 to 100%
CCCO[C@H]1[C@H](C)OC(=O)[C@@H](NC(=O)c2nccc(OC)c2OCOC(C)=O)CCC[C@@H]1Oc1ccc(F)cc1 [F267] | 80 to 100% | – | 80 to 100% | – | 80 to 100% | – | 80 to 100% | –
CCCO[C@H]1CCC[C@H](NC(=O)c2nccc(OC)c2O)C(=O)O[C@@H](C)[C@@H]1Oc1ccc(OC)cc1 [F270] | 80 to 100% | – | 0 to 80% | – | 80 to 100% | – | 80 to 100% | –
CCCO[C@H]1CCC[C@H](NC(=O)c2nccc(OC)c2O)C(=O)O[C@@H](C)[C@@H]1Oc1cccc(F)c1 [F271] | 80 to 100% | – | 80 to 100% | – | 80 to 100% | – | 80 to 100% | –
CCCO[C@H]1CCC[C@H](NC(=O)c2nccc(OC)c2O)C(=O)O[C@@H](C)[C@@H]1Oc1cccc(Cl)c1 [F272] | 80 to 100% | – | 80 to 100% | – | 80 to 100% | – | 80 to 100% | –
CCCO[C@H]1CCC[C@H](NC(=O)c2nccc(OC)c2O)C(=O)O[C@@H](C)[C@@H]1Oc1ccc(Br)cc1 [F273] | 80 to 100% | – | 0 to 80% | – | 80 to 100% | – | 80 to 100% | –
CCCO[C@H]1CCC[C@H](NC(=O)c2nccc(OC)c2OC(C)=O)C(=O)O[C@@H](C)[C@@H]1Oc1ccc(OC)cc1 [F274] | 80 to 100% | 80 to 100% | 80 to 100% | 80 to 100% | 80 to 100% | 80 to 100% | 80 to 100% | 0 to 80%
CCCO[C@H]1CCC[C@H](NC(=O)c2nccc(OC)c2OC(C)=O)C(=O)O[C@@H](C)[C@@H]1Oc1cccc(F)c1 [F275] | 80 to 100% | 80 to 100% | 80 to 100% | 80 to 100% | 80 to 100% | 80 to 100% | 80 to 100% | 80 to 100%
CCCO[C@H]1[C@H](C)OC(=O)[C@@H](NC(=O)c2nccc(OC)c2O)CCC[C@@H]1Oc1cccc(F)c1 [F280] | 80 to 100% | – | 80 to 100% | – | 80 to 100% | – | 0 to 80% | –
CCCO[C@H]1[C@H](C)OC(=O)[C@@H](NC(=O)c2nccc(OC)c2O)CCC[C@@H]1Oc1cc(C)cc(C)c1 [F281] | 0 to 80% | – | 0 to 80% | – | 80 to 100% | – | 0 to 80% | –
CCCO[C@H]1[C@H](C)OC(=O)[C@@H](NC(=O)c2nccc(OC)c2OC(C)=O)CCC[C@@H]1Oc1cc(C)cc(C)c1 [F282] | 80 to 100% | 80 to 100% | 80 to 100% | 80 to 100% | 80 to 100% | 80 to 100% | 80 to 100% | 80 to 100%
